Data as given in patent US20150148311A1, “NON-SYSTEMIC TGR5 AGONISTS” (Ardelyx, Inc., priority 2011, published 2015).
Where two headings read alike, the source gives them in different places.

Tests used:
human TGR5 = molecular target: T1, human TGR5 (Homo sapiens, UniProt Q8TDU6); assay: Cell-based TGR5 assay, HEK293 cells stably expressing human TGR5, cAMP by HTRF; conditions: 0.05 nM to 10 μM
T1 construct: expressed in transfected cells
T1 sequence (Q8TDU6 1-330): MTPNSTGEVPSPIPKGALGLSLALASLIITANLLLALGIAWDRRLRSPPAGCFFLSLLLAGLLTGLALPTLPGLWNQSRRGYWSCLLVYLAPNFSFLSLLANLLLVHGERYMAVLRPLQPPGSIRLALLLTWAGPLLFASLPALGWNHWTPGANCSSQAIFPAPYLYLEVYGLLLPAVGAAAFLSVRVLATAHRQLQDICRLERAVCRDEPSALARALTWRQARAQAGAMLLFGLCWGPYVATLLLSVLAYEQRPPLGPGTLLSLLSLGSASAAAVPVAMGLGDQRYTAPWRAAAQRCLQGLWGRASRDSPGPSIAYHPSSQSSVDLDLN
Experimental: (§1) Two primary cell based screens were performed. The first utilized HEK293 cells stably transfected to heterologously express human TGR5. The second screen used the human caecum carcinoma cell line NCI-H716 which endogenously expresses human TGR5. In both assays, cells are treated with candidate TGR5 activators and assessed for the increased intercellular levels of cAMP.
HEK293 cells were transfected with a vector that expresses a gene encoding human TGR5, and a stable cell line was isolated using drug selection following standard techniques. Cells were grown overnight at 37° C./5% CO2 prior to assay.
(§2) TGR5-mediated cAMP generation was measured using a homogeneous time resolved fluorescence (HTRF) detection method (Cisbio). Test compounds were dissolved in DMSO to a final concentration of 10 mM. Serial 3-fold dilutions of the stock solution were made in DMSO, and these solutions were diluted 100-fold into Hanks Balanced Salt Solution supplemented with 10 mM HEPES pH 7.4 and 0.5 mM isobutyl methylxanthine (IBMX). Prior to assay, culture medium was replaced with fresh medium, and test compounds diluted in HBSS/HEPES/IBMX were added to the cells and incubated at 37° C. for 30 minutes.
(§3) Following incubation with test compounds, cAMP was detected through the successive addition of cAMP labeled with the modified allophyocyanin dye d2 (cAMP-d2) and cryptate-labeled anti-cAMP in lysis buffer, and reading HTRF per the manufacturer's instructions. A standard curve was used to convert the raw HTRF data into [cAMP].

[1] = molecular target: T2, endogenously expressed TGR5 in NCI H716 (Homo sapiens, UniProt Q8TDU6); assay: Cell-based TGR5 assay, NCI-H716 cells endogenously expressing human TGR5, cAMP by HTRF; conditions: 30 min at 37 C, 22 nM to 50 μM, read-out: pEC50 endogenously expressed TGR5 in NCI H716 (converted)
T2 construct: human caecum carcinoma cell line NCI-H716 which endogenously expresses human TGR5; endogenous in cells; host or cells: NCI-H716
T2 sequence (Q8TDU6 1-330): T1 sequence (Q8TDU6 1-330)
Experimental: as §1, with “cAMP. […]” for “cAMP.”
as §2, §3

[2] = HEK293 cells stably expressing human TGR5, 30 min at 37 C, read-out: pEC50 Human TGR5 (converted)

Structure (SMILES) | EC50 (human TGR5; [2]) [nM] | EC50 [1] [nM] | EC50 (human TGR5; pEC50 Human TGR5, HEK293 cells stably expressing human TGR5, 30 min at 37 C) [nM]
CS(=O)(=O)N1CC(OCc2cc(Cl)ccc2Cl)(C(=O)N2CCN(C3CC3)c3ccccc32)C1 [Example 55, (4-cyclopropyl-3,4-dihydroquinoxalin-1(2H)-yl)(3-(2,5-dichlorobenzyloxy)-1-(methylsulfonyl)azetidin-3-yl)methanone] | 126 to 1000 | 1260 to 50100 | 
CN(C[C@H](O)[C@@H](O)[C@@H](O)[C@H](O)CO)C(=O)CCCCc1cc(Cl)c(CNC2(C(=O)N3CCN(C4CC4)c4ccccc43)CC2)cc1Cl [Example 220] | < 100 | < 100 | 
CN(C[C@H](O)[C@@H](O)[C@H](O)[C@H](O)CO)C(=O)CCc1ccc(Cl)c(CN2CSC[C@H]2C(=O)N2CCN(C3CC3)c3ccccc32)c1 [Example 215] | 126 to 1000 | 1260 to 50100 | 
COc1ccccc1N(C)C(=O)C1(NCc2cc(Cl)ccc2Cl)CC1 [Example 38, 1-(2,5-dichlorobenzylamino)-N-(2-methoxyphenyl)-N-methylcyclopropanecarboxamide] | < 100 | < 100 | 
NCCCc1cc(Cl)c(CNC2(C(=O)N3CCN(C4CC4)c4ccccc43)CC2)cc1Cl [Example 92, (1-(4-(3-aminopropyl)-2,5-dichlorobenzylamino)cyclopropyl)(4-cyclopropyl-3,4-dihydroquinoxalin-1(2H)-yl)methanone] | 1260 to 50100 | 1260 to 50100 | 
COc1ccc(COC2(C(=O)N3CCN(C4CC4)c4ccccc43)CC2)c(Cl)c1 [Example 246] | 126 to 1000 | 1260 to 50100 | 
CC(c1cc(Cl)ccc1Cl)N1CCC[C@H]1C(=O)N1CCN(C2CC2)c2ccccc21 (single isomer, unassigned) [Example 67] | 1260 to 50100 | 1260 to 50100 | 
O=C(CCc1ccc(Cl)c(CNC2(C(=O)N3CCN(C4CC4)c4ccccc43)CC2)c1)NC[C@H](O)[C@@H](O)[C@H](O)[C@H](O)CO [Example 70, 3-(4-chloro-3-(((1-(4-cyclopropyl-1,2,3,4-tetrahydroquinoxaline-1-carbonyl)cyclopropyl)amino)methyl)phenyl)-N-((2S,3R,4R,5R)-2,3,4,5,6-pentahydroxyhexyl)propanamide] | 1260 to 50100 | 1260 to 50100 | 
CN(C[C@H](O)[C@@H](O)[C@H](O)[C@H](O)CO)C(=O)CCc1ccc(Cl)c(CNC2(C(=O)N3CCN(C4CC4)c4ccccc43)CC2)c1 [Example 60, 3-(4-chloro-3-(((1-(4-cyclopropyl-1,2,3,4-tetrahydroquinoxaline-1-carbonyl)cyclopropyl)amino)methyl)phenyl)-N-methyl-N-((2S,3R,4R,5R)-2,3,4,5,6-pentahydroxyhexyl)propanamide] | 126 to 1000 | 126 to 1000 | 
CN(C[C@H](O)[C@@H](O)[C@@H](O)[C@H](O)CO)C(=O)NCCCc1cc(Cl)c(CNC2(C(=O)N3CCN(C4CC4)c4ccccc43)CC2)cc1Cl [Example 214] | 126 to 1000 | 126 to 1000 | 
O=C([C@@H]1SCCN1Cc1cc(Cl)ccc1C(F)(F)F)N1CCN(C2CC2)c2ccccc21 [Example 268] | < 100 | 126 to 1000 | 
O=C(N1CCN(C2CC2)c2ccccc21)C1(OCc2cc(C(F)(F)F)ccc2Cl)CC1 [Example 43, 1-[(1-[[2-chloro-5-(trifluoromethyl)phenyl]methoxy]cyclopropyl)carbonyl]-4-cyclopropyl-1,2,3,4-tetrahydroquinoxaline] | < 100 | < 100 | 
CN(CCCCc1cc(Cl)c(OCC2(C(=O)N3CCN(C4CC4)c4ccccc43)CC2)cc1Cl)C[C@H](O)[C@@H](O)[C@H](O)[C@H](O)CO [Example 171, (4-cyclopropyl-3,4-dihydroquinoxalin-1(2H)-yl)(1-((2,5-dichloro-4-(4-(methyl((2S,3R,4R,5R)-2,3,4,5,6-pentahydroxyhexyl)amino)butyl)phenoxy)methyl)-cyclopropyl)methanone] | 126 to 1000 |  | 
O=C(CCCCc1cc(Cl)c(CN2C[S+]([O-])C[C@H]2C(=O)N2CCN(C3CC3)c3ccccc32)cc1Cl)NC[C@H](O)[C@@H](O)[C@H](O)[C@H](O)CO (stereo partly shown) [Example 221] | 126 to 1000 |  | 
CN(C[C@H](O)[C@@H](O)[C@H](O)[C@H](O)CO)C(=O)c1cc(NCCCCCc2cc(Cl)c(CN3CSC[C@H]3C(=O)N3CCN(C4CC4)c4ccccc43)cc2Cl)nc(N(C)CCO)n1 [Example 224] | 126 to 1000 |  | 
O=C(NC[C@H](O)[C@@H](O)[C@H](O)[C@H](O)CO)c1ccc(OCCCc2cc(Cl)c(CN3CSC[C@H]3C(=O)N3CCN(C4CC4)c4ccccc43)cc2Cl)cc1 [Example 286] | 126 to 1000 |  | 

Structure (SMILES) | EC50 (human TGR5; [2]) [nM] | EC50 [1] [nM] | EC50 (human TGR5; pEC50 Human TGR5, HEK293 cells stably expressing human TGR5, 30 min at 37 C) [nM]
CN(C[C@H](O)[C@H](O)[C@@H](O)[C@H](O)CO)C(=O)c1ccc(CCc2cc(Cl)c(CN3CSC[C@H]3C(=O)N3CCN(C4CC4)c4ccccc43)cc2Cl)cn1 [Example 201] | 126 to 1000 |  | 
O=C([C@@H]1CSCN1Cc1cc(Cl)c(CCCCCNc2nc(N(CCO)CCO)nc(N(CCO)CCO)n2)cc1Cl)N1CCN(C2CC2)c2ccccc21 [Example 173, 2-({4-[bis(2-hydroxyethyl)amino]-6-{[5-(2,5-dichloro-4-{[(4R)-4-[(4-cyclopropyl-1,2,3,4-tetrahydroquinoxalin-1-yl)carbonyl]-1,3-thiazolidin-3-yl]methyl}phenyl)pentyl]amino}-1,3,5-triazin-2-yl}(2-hydroxyethyl)amino)ethan-1-ol] | 126 to 1000 |  | 
CN(C[C@H](O)[C@@H](O)[C@H](O)[C@H](O)CO)C(=O)c1ccc(COc2cc(Cl)c(CN3CSC[C@H]3C(=O)N3CCN(C4CC4)c4ccccc43)cc2Cl)cc1 [Example 196] | 126 to 1000 |  | 
O=C(NCCOCCOCCOCCNC(=O)c1ccc(COc2cc(Cl)c(CN3CSC[C@H]3C(=O)N3CCN(C4CC4)c4ccccc43)cc2Cl)cc1)c1ccc(COc2cc(Cl)c(CN3CSC[C@@H]3C(=O)N3CCN(C4CC4)c4ccccc43)cc2Cl)cc1 [Example 190] | 1260 to 50100 |  | 
CN(C[C@H](O)C(O)[C@H](O)[C@H](O)CO)C(=O)CC[C@H](NC(=O)CCCCc1cc(Cl)c(CN2CSC[C@H]2C(=O)N2CCN(C3CC3)c3ccccc32)cc1Cl)C(=O)N(C)C[C@H](O)[C@@H](O)[C@H](O)[C@H](O)CO (stereo partly shown) [Example 280] | 126 to 1000 |  | 
O=C(C1SCCN1Cc1cc(Cl)ccc1Cl)N1CCN(C2CC2)c2ccccc21 (stereo not shown) [Example 291] | 1260 to 50100 |  | 
O=C(NCCCN(CCCNC(=O)[C@H](O)[C@@H](O)[C@H](O)[C@H](O)CO)C(=O)CCc1cc(Cl)c(CN2CSC[C@H]2C(=O)N2CCN(C3CC3)c3ccccc32)cc1Cl)[C@H](O)[C@@H](O)[C@H](O)[C@H](O)CO [Example 209] | 1260 to 50100 |  | 
O=C(N1CCN(C2CC2)c2ccccc21)C1(NCc2cc(C3CC3)ccc2Cl)CC1 [Example 183, (1-(2-chloro-5-cyclopropylbenzylamino)cyclopropyl)(4-cyclopropyl-3,4-dihydroquinoxalin-1(2H)-yl)methanone] | < 100 |  | 
CN(CCO)c1nc(NCCCCCc2cc(Cl)c(CN3CSC[C@H]3C(=O)N3CCN(C4CC4)c4ccccc43)cc2Cl)cc(C(=O)NC[C@H](O)[C@@H](O)[C@H](O)[C@H](O)CO)n1 [Example 225] | < 100 |  | 
O=C([C@@H]1CSCN1Cc1c(Cl)ccc(Cl)c1O)N1CCN(C2CC2)c2ccccc21 [Example 170, (R)-(4-cyclopropyl-3,4-dihydroquinoxalin-1(2H)-yl)(3-(3,6-dichloro-2-hydroxybenzyl)thiazolidin-4-yl)methanone] | 126 to 1000 |  | 
CN(C[C@H](O)[C@@H](O)[C@@H](O)[C@H](O)CO)C(=O)CCc1cc(Cl)c(CN2C[C@@H](F)C[C@H]2C(=O)N2CCN(C3CC3)c3ccccc32)cc1Cl [Example 267] | 1260 to 50100 |  | 
CN(C[C@H](O)[C@@H](O)[C@H](O)[C@H](O)CO)C(=O)CCCCc1ccc(Cl)c(CNC2(C(=O)N3CCN(C4CC4)c4ccccc43)CC2)c1 [Example 260] | 126 to 1000 |  | 
CN(C(=O)[C@@H]1CSCN1Cc1cc(Cl)ccc1Cl)c1ccccc1OC1CC1 [Example 289] | 126 to 1000 |  | 
CN(C[C@H](O)[C@@H](O)[C@H](O)[C@H](O)CO)C(=O)NCCCc1cc(Cl)c(OCC2(C(=O)N3CCN(C4CC4)c4ccccc43)CC2)cc1Cl [Example 253] | 126 to 1000 |  | 
O=C(NCCCN(CCCNC(=O)[C@H](O)[C@@H](O)[C@H](O)[C@H](O)CO)C(=O)NCCCCOc1cc(Cl)c(CN2CSC[C@H]2C(=O)N2CCN(C3CC3)c3ccccc32)cc1Cl)[C@H](O)[C@@H](O)[C@H](O)[C@H](O)CO [Example 195] |  |  | 126 to 1000
